Laboratory results: patent US20250368616A1, “NITROGEN-CONTAINING HETEROCYCLIC DERIVATIVE INHIBITOR, AND PREPARATION METHOD THEREFOR AND USE THEREOF” (SHANGHAI HANSOH BIOMEDICAL CO., LTD., priority 2021, published 2025)

Key:
[1] = tested on: Ba/F3 EGFR Del19/C797S cells; assay: Cell proliferation inhibition assay (Cell Titer-Glo), Ba/F3 EGFR Del19/C797S; type: cell-based; details: 72 hours, read-out: Ba/F3 EGFR Del19_C797S IC50
Description: (§1) Test Example 2: Cell Proliferation Inhibition Assay
(§2) Experimental objective: The objective of this test example is to test the inhibitory activity of compounds on the proliferation of different EGFR C797S drug-resistant mutant cell lines Ba/F3 EGFR Del19/T790M/C797S, Ba/F3 EGFR L858R/T790M/C797S, and Ba/F3 EGFR Del19/C797S.
(§3) • Ba/F3 EGFR Del19/T790M/C797S cells were purchased from KYinno Biotechnology Co., Ltd.; • Ba/F3 EGFR Del19/C797S cells were purchased from CoBioer Biosciences Co., Ltd.; • Ba/F3 EGFR L858R/T790M/C797S cells were purchased from CoBioer Biosciences Co., Ltd.; • Cell Titer-Glo was purchased from Promega, with a catalog number of G7573; • RPMI 1640 was purchased from Gibco, with a catalog number of 22400089; • FBS was purchased from Gibco, with a catalog number of 10091148; • cell culture plates were purchased from Corning, with a catalog number of 3610.
(§4) The inhibitory activity of the compound on the proliferation of different EGFR C797S drug-resistant mutant cell lines was detected using the Cell Titer-Glo method. The different cell lines were cultured in RPMI 1640 complete culture medium containing 10% FBS under conditions of 37° C. and 5% CO2, the cells were collected by centrifugation when growing to a certain density, and adjusted to appropriate cell density after counting, the cells were spread on a white 96-well plate at 90 μL/well, and cultured in a 37° C., 5% CO2 incubator overnight, prepared compound solutions of different concentrations were added at 10 μL/well, corresponding solvent controls were set, and all wells were cultured in a 37° C., 5% CO2 incubator for 72 hours, 50 μL of CellTiter-Glo solution was added to each well, shook and mixed evenly, and incubated in the dark for 10 minutes, and a BioTek Synergy H1 microplate reader was used for reading.
(§5) The luminescence signal value was used to calculate the inhibition rate. Graphpad Prism software was used to fit the concentration and inhibition rate to a nonlinear regression curve, so as to obtain the IC50 value, as shown in Tables 3 and 4 below for details.

[2] = tested on: Ba/F3 EGFR Del19/T790M/C797S cells; assay: Cell proliferation inhibition assay (Cell Titer-Glo), Ba/F3 EGFR Del19/T790M/C797S; type: cell-based; details: 72 hours, read-out: Ba/F3 EGFR Del19_T790M_C797S IC50
Description: as §1, §2, §3, §4, §5

[3] = molecular target: EGFR del19/T790M/C797S mutant kinase (Homo sapiens, UniProt P00533, C797S/DEL746-750/T790M); assay: HTRF kinase assay, EGFR del19/T790M/C797S mutant kinase; type: biochemical; details: 120 minutes at room temperature
Description: (§6) Test Example 1. Determination of the Inhibitory Effect of the Compounds of the Present Invention on the Activity of EGFR del19/T790M/C797S and EGFR L858R/T790M/C797S Mutant Kinases
(§7) Experimental objective: The objective of this test example is to test the inhibitory activity of the compounds on the activity of EGFR del19/T790M/C797S and EGFR L858R/T790M/C797S mutant kinases.
(§8) Experimental method: This experiment used Cisbio's HTRF kinase assay method (Cisbio #62TK0PEB), wherein a catalytic reaction occurred between the substrate polypeptide TK and ATP in the presence of the tyrosine kinase with EGFR del19/T790M/C797S or EGFR L858R/T790M/C797S mutation, the substance was phosphorylated, and the activity of the kinase was characterized by measuring the content of the phosphorylated substrate generated during the reaction, and the half inhibitory concentration IC50 of the compound on the activity of EGFR del19/T790M/C797S or EGFR L858R/T790M/C797S mutant kinase was obtained.
(§9) Specific Experimental Operations were as Follows: • the kinase reaction was carried out in a white 384-well plate (Perkin Elmer #6008280), and 1-5 μL of compounds of different concentrations which were diluted with 1% DMSO-containing ddH2O were added; to the positive control wells were added 1-5 μL of 1% DMSO-containing ddH2O, followed by 1-5 μL of 0.5-5 nM 4×EGFR del19/T790M/C797S or EGFR L858R/T790M/C797S mutant kinase solution which was diluted with Dilution buffer (5× kinase buffer, MgCl2 6.65 Mm, MnCl2 1.33 mM, DTT 1.33 mM); to the negative control wells were added 1-5 μL of Dilution buffer; to all the wells were added 1-5 μL of 4 μM 4× substrate TK solution which was prepared with 10× Dilution buffer, and finally added 1-5 μL of 24 μM 4×ATP solution which was diluted with Dilution buffer to start the reaction; after reacting at room temperature for 120 minutes, 10 μL of detection solution (TK antibody 16 nM, XL665 0.5 μM) was added to each well, same was reacted at room temperature in the dark for 20 minutes, and then the […] was detected using a BioTek Synergy H1 microplate reader.
(§10) The percent inhibition data for compound-treated wells was calculated according to the positive control wells (DMSO control wells) and negative control wells (no kinase added) on the plate {% inhibition rate=100−[(test compound value−negative control value)]/(positive control value−negative control value)×100}. GraphPad prism was used to fit different concentrations and corresponding percent inhibition rate data to a 4-parameter nonlinear logistic equation to calculate IC50 values.

[4] = molecular target: EGFR L858R/T790M/C797S mutant kinase (Homo sapiens (Human), UniProt P00533, C797S/L858R/T790M); assay: HTRF kinase assay, EGFR L858R/T790M/C797S mutant kinase; type: biochemical; details: 120 minutes at room temperature
Description: as §6, §7, §8, §9, §10

Sequence of EGFR del19/T790M/C797S mutant kinase (P00533 with tags, fused parts or gaps C797S/DEL746-750/T790M limits assumed): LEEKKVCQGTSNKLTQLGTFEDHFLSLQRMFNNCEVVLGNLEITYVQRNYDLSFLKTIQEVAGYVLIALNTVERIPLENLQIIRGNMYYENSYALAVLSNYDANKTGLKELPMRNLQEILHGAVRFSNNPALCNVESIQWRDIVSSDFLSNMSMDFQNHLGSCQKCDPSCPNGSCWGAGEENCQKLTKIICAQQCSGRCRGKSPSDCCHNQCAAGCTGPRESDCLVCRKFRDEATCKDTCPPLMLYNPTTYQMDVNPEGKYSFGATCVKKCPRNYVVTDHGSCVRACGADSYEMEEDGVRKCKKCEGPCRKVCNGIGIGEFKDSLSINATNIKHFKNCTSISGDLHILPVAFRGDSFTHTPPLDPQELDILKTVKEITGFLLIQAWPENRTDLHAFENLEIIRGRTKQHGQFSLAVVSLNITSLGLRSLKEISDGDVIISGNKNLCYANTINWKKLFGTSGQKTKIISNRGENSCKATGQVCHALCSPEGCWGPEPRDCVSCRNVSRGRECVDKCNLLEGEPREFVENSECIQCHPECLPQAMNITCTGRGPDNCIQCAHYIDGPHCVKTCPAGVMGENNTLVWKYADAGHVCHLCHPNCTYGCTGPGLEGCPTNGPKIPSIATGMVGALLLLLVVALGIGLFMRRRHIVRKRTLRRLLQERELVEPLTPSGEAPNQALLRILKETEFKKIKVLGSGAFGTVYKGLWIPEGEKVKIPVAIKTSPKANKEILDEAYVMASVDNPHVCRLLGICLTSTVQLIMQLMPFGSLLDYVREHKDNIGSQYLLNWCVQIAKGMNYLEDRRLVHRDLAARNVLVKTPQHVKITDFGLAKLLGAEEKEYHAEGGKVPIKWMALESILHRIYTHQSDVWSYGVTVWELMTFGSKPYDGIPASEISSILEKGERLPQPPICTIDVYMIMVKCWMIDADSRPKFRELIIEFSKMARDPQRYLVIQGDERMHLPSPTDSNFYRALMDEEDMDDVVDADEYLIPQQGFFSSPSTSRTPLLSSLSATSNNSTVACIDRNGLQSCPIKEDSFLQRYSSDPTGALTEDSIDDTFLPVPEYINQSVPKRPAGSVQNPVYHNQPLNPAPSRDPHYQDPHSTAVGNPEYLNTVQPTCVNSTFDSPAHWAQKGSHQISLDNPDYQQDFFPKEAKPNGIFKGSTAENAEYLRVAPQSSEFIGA
Sequence of EGFR L858R/T790M/C797S mutant kinase (P00533 25-1210 T790M/C797S/L858R): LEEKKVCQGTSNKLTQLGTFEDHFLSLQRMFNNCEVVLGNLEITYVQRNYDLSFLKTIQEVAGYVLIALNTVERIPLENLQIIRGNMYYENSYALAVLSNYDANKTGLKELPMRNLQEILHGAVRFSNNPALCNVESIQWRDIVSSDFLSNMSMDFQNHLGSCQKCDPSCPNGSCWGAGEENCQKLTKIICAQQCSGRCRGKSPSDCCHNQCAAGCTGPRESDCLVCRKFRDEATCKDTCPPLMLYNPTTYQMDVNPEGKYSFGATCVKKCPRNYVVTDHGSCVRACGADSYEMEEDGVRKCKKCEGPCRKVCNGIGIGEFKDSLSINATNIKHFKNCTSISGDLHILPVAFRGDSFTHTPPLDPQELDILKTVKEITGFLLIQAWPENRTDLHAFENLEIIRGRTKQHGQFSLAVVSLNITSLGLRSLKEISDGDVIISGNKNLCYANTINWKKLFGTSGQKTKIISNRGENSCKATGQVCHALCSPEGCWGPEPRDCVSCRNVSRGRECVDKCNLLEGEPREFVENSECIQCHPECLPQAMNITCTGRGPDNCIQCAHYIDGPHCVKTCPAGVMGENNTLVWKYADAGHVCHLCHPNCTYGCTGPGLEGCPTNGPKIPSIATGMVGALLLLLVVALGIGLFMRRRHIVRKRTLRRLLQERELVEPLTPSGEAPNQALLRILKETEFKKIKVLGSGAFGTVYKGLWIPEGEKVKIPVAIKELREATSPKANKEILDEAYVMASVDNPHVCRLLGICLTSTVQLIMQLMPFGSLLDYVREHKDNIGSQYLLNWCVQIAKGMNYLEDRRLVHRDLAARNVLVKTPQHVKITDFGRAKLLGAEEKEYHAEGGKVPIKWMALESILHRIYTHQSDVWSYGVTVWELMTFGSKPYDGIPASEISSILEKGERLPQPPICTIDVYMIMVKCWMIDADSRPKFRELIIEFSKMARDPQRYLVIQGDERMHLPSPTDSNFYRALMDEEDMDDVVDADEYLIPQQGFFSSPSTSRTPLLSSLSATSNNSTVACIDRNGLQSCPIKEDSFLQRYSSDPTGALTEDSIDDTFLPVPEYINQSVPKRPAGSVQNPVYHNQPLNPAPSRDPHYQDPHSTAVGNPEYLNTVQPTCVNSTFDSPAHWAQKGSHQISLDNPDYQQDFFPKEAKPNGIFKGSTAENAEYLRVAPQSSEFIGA

| SMILES | IC50 [1] [nM] | IC50 [2] [nM] | IC50 [3] [nM] | IC50 [4] [nM] |
| --- | --- | --- | --- | --- |
| CC(C)c1cnc(N2CC(CS(C)(=O)=O)C2)c2cnc(Nc3ccnc(-c4cnn(S(=O)(=O)C5CC5)c4)n3)cc12 [Example 3, N-(2-(1-(cyclopropylsulfonyl)-1H-pyrazol-4-yl)pyrimidin-4-yl)-5-isopropyl-8-(3-((methanesulfonyl)methyl)azetidin-1-yl)-2,7-diazanaphthalen-3-amine] | 10 | 5.5 | 9.4 |  |
| CC(C)c1ccc(N2C[C@H](CS(C)(=O)=O)[C@H]2C)c2cnc(Nc3ccnc(-c4cnn(C(F)F)c4)n3)cc12 [Example 25, N-(2-(1-(difluoromethyl)-1H-pyrazol-4-yl)pyrimidin-4-yl)-5-isopropyl-8-((2R,3S)-2-methyl-3-((methanesulfonyl)methyl)azetidin-1-yl)isoquinolin-3-amine] | 54 | 14 |  |  |
| Cc1nn(C)cc1-c1nccc(Nc2cc3c(C(C)C)ccc(N4C[C@H](CS(=O)(=O)N(C)C)[C@H]4C)c3cn2)n1 [Example 61, 1-((2R,3S)-1-(3-((2-(1,3-dimethyl-1H-pyrazol-4-yl)pyrimidin-4-yl)amino)-5-isopropylisoquinolin-8-yl)-2-methylazetidin-3-yl)-N,N-dimethyl methanesulfonamide] | 24 | 9.1 |  |  |
| CC(C)c1ccc(N2C[C@H](CS(C)(=O)=O)[C@H]2C)c2cnc(Nc3ccnc(-c4cn(C5CC5)nc4Cl)n3)cc12 [Example 70, N-(2-(3-chloro-1-cyclopropyl-1H-pyrazol-4-yl)pyrimidin-4-yl)-5-isopropyl-8-((2R,3S)-2-methyl-3-((methanesulfonyl)methyl)azetidin-1-yl)isoquinolin-3-amine] | 10 | 11 |  |  |
| COCCn1cc(-c2nccc(Nc3cc4c(C(C)C)ccc(N5C[C@H](CS(C)(=O)=O)[C@H]5C)c4cn3)n2)c(Cl)n1 [Example 73, N-(2-(3-chloro-1-(2-methoxyethyl)-1H-pyrazol-4-yl)pyrimidin-4-yl)-5-isopropyl-8-((2R,3S)-2-methyl-3-((methanesulfonyl)methyl)azetidin-1-yl)isoquinolin-3-amine] | 8.5 | 11 |  |  |
| CC(C)c1ccc(N2C[C@H](CS(C)(=O)=O)[C@H]2C)c2cnc(Nc3ccnc(-c4cn(C5CCOCC5)nc4Cl)n3)cc12 [Example 78, N-(2-(3-chloro-1-(tetrahydro-2H-pyran-4-yl)-1H-pyrazol-4-yl)pyrimidin-4-yl)-5-isopropyl-8-((2R,3S)-2-methyl-3-((methanesulfonyl)methyl)azetidin-1-yl)isoquinolin-3-amine] | 27 | 12 |  |  |
| CC(C)c1ccc(N2CC(N(C)S(C)(=O)=O)C2)c2cnc(Nc3ccnc(-c4cn(CCO)nc4Cl)n3)cc12 [Example 79, N-(1-(3-((2-(3-chloro-1-(2-hydroxyethyl)-1H-pyrazol-4-yl)pyrimidin-4-yl)amino)-5-isopropylisoquinolin-8-yl)azetidin-3-yl)-N-methyl Methanesulfonamide] | 11 | 7.7 |  |  |
| CC(O)Cn1cc(-c2nccc(Nc3cc4c(C(C)C)ccc(N5C[C@H](CS(C)(=O)=O)[C@H]5C)c4cn3)n2)c(Cl)n1 (stereo partly drawn) [Example 80, 1-(3-chloro-4-(4-((5-isopropyl-8-((2R,3S)-2-methyl-3-((methanesulfonyl)methyl)azetidin-1-yl)isoquinolin-3-yl)amino)pyrimidin-2-yl)-1H-pyrazol-1-yl)propan-2-ol] | 17 | 10 |  |  |
| CC(C)c1ccc(N2CC(N3C[C@@H](C)OC3=O)C2)c2cnc(Nc3ccnc(-c4cn(C)nc4Cl)n3)cc12 [Example 84, (R)-3-(1-(3-((2-(3-chloro-1-methyl-1H-pyrazol-4-yl)pyrimidin-4-yl)amino)-5-isopropylisoquinolin-8-yl)azetidin-3-yl)-5-methyloxazolidin-2-one] | 93 |  |  |  |

Continued, values first:

| IC50 [1] [nM] | IC50 [2] [nM] | IC50 [3] [nM] | IC50 [4] [nM] | SMILES |
| --- | --- | --- | --- | --- |
| 24 | 7.2 |  |  | CC(C)c1ccc(N2C[C@H](CS(C)(=O)=O)[C@H]2C)c2cnc(Nc3ccnc(-c4cn(CCO)nc4Cl)n3)cc12 [Example 11, 2-(3-chloro-4-(4-((5-isopropyl-8-((2R,3S)-2-methyl-3-((methanesulfonyl)methyl)azabut-1-yl)isoquinolin-3-yl)amino)pyrimidin-2-yl)-1H-pyrazol-1-yl)ethanol] |
|  |  | 9.1 |  | CC(C)c1ccc(N2C[C@H](CS(C)(=O)=O)[C@H]2C)c2cnc(Nc3ccnc(-c4cnn(CC5(CC#N)CC5)c4)n3)cc12 [Example 18, 2-(1-((4-(4-((5-isopropyl-8-((2R,3S)-2-methyl-3-((methanesulfonyl)methyl)azetidin-1-yl)isoquinolin-3-yl)amino)pyrimidin-2-yl)-1H-pyrazol-1-yl)methyl)cyclopropyl)acetonitrile] |
| 78 |  |  | 1 | CC(C)c1ccc(N2C[C@H](CS(C)(=O)=O)[C@H]2C)c2cnc(Nc3ccnc(-c4cnn(CC(F)(F)F)c4)n3)cc12 [Example 26, 5-isopropyl-8-((2R,3S)-2-methyl-3-((methanesulfonyl)methyl)azetidin-1-yl)-N-(2-(1-(2,2,2-trifluoroethyl)-1H-pyrazol-4-yl)pyrimidin-4-yl)isoquinolin-3-amine] |
| 85 |  | 4.2 |  | CC(C)c1ccc(N2C[C@H](CS(C)(=O)=O)[C@H]2C)c2cnc(Nc3ccnc(-c4cnn(CCO)c4)n3)cc12 [Example 48, 2-(4-(4-((5-isopropyl-8-((2R,3S)-2-methyl-3-((methanesulfonyl)methyl)azetidin-1-yl)isoquinolin-3-yl)amino)pyrimidin-2-yl)-1H-pyrazol-1-yl)ethan-1-ol] |
| 32 |  | 7.5 |  | CC(C)c1ccc(N2C[C@H](CS(C)(=O)=O)[C@H]2C)c2cnc(Nc3ccnc(-c4cncs4)n3)cc12 [Example 54, 5-isopropyl-8-((2R,3S)-2-methyl-3-((methanesulfonyl)methyl)azetidin-1-yl)-N-(2-(thiazol-5-yl)pyrimidin-4-yl)isoquinolin-3-amine] |
| 14 | 14 |  |  | CC(C)c1ccc(N2C[C@H](N3CCOC3=O)[C@H]2C)c2cnc(Nc3ccnc(-c4cn(C)nc4Cl)n3)cc12 [Example 74, 3-((2R,3S)-1-(3-((2-(3-chloro-1-methyl-1H-pyrazol-4-yl)pyrimidin-4-yl)amino)-5-isopropylisoquinolin-8-yl)-2-methylazetidin-3-yl)oxazolidin-2-one] |
